Laboratory results taken from patent publication US20110195845A1, “Constructs for Expressing Herbicide Tolerance Genes, Related Plants, and Related Trait Combinations” (Dow AgroSciences LLC, priority 2008, published 2011).

What was measured:
[1] = tested on: Escherichia coli BL21-Star (DE3) expressing DSM-2 (v2); experiment: Complementation of cell growth on glufosinate, pDAB4412 (DSM-2 v2); assay type: cell-based; set-up: bacterial growth on minimal media: key: −− = No Growth; +++ = Distinct Colony Growth; details: for bacterial growth on minimal media: 24 hrs @28 C, 20 uM IPTG
Protocol: The plasmids, pDAB4434, pDAB4412, and an empty pET vector (control) were transformed into Escherichia coli BL21-Star (DE3) bacterial cells. Expression cultures were initiated with 10-200 freshly transformed colonies into 250 mL LB medium containing 50 μg/ml antibiotic and 75 μM IPTG (isopropyl-[…]). The cultures were grown at 28° C. for 24 hours at 180-200 rpm. Five microliters of the culture was inoculated onto a complex media control and minimal media containing incrementally increasing concentrations of glufosinate and 20 μM IPTG. The cultures were dispersed evenly over the plates and incubated at 28° C. for 24 hours.

Wildtype Arabidopsis = experiment: Arabidopsis response to glufosinate applied postemergence; assay type: in vivo, Arabidopsis thaliana; details: for % Injury Ave / individuals with % Injury 20-40% / individuals with % Injury <20% / individuals with % Injury >40%: 2 WAT
Protocol: Seven days after planting (DAP) and again 11 DAP, T1 plants (cotyledon and 2-4-1f stage, respectively) were sprayed with a 0.016% solution of 2,4-D herbicide (456 g ae/L 2,4-D Amine 4, Dow AgroSciences LLC, Indianapolis, Ind.) at a spray volume of 10 ml/tray (703 L/ha) using a DeVilbiss compressed air spray tip to deliver an effective rate of 50 g ae/ha 2,4-D DMA per application. Survivors (plants actively growing) were identified 4-7 days after the final spraying and transplanted individually into 3-inch pots prepared with potting media (Metro Mix 360). Transplanted plants were covered with humidity domes for 3-4 days and placed in a 22° C. growth chamber as before or moved to directly to the greenhouse. Domes were subsequently removed and plants reared in the greenhouse (22±5° C., 50±30% RH, 14 h light:10 dark, minimum 500 μE/m^2s^1 natural+supplemental light) at least 1 day prior to testing for the ability of DSM-2 (v2) to provide glufosinate herbicide resistance.
T1 plants were then randomly assigned to various rates of glufosinate. For Arabidopsis 140 g ai/ha glufosinate is an effective dose to distinguish sensitive plants from ones with meaningful levels of resistance. Elevated rates were also applied to determine relative levels of resistance (280, 560, or 1120 g ai/ha).
All glufosinate herbicide applications were applied by track sprayer in a 187 L/ha spray volume. The commercial Liberty™ formulation (200 g ai/L, Bayer Crop Science, Research Triangle Park, N.C.).
The first Arabidopsis transformations were conducted using DSM-2 (v2) (plant optimized gene). T1 transformants were first selected from the background of untransformed seed using a 2,4-D DMA selection scheme. Over 100,000 T1 seed were screened and 260 2,4-D resistant plants (AAD-12 gene) were identified, equating to a transformation/selection frequency of 0.26% which is slightly higher than the normal range of selection frequency of constructs where AAD-12+2,4-D are used for selection. T1 plants selected above were subsequently transplanted to individual pots and sprayed with various rates of commercial glufosinate herbicide. Table 10 compares the response of DSM-2 (v2) and control genes to impart glufosinate resistance to Arabidopsis T1 transformants. Response is presented in terms of % visual injury 2 WAT. […] Since each T1 is an independent transformation event, one can expect significant variation of individual T1 responses within a given rate. An arithmetic mean and standard deviation is presented for each treatment. Untransformed-wildtype Arabidopsis served as a glufosinate sensitive control. The DSM-2 (v2) gene imparted herbicide resistance to individual T1 Arabidopsis plants. Within a given treatment, the level of plant response varied greatly and can be attributed to the fact each plant represents an independent transformation event. Of important note, at above 140 g ai/ha glufosinate, there were individuals that were unaffected while some were severely affected.

[2] = tested on: WT corn (5× H751× Hi II control plants); experiment: Corn response to glufosinate applied postemergence; assay type: in vivo; details: 14DAT
Description: The seed from the cross of T1 DSM-2 (v2)×5× H751 were planted into 4-inch pots containing Metro Mix media and at 2 leaf stage were sprayed in the track sprayer set to 187 L/ha at 560 g ai/ha glufosinate to remove nulls. At 7 DAT nulls were removed and resistant plants were sprayed in the track sprayer as above at the following rates: 0, 560, 1120, 2240, and 4480 g ai/ha glufosinate. Plants were graded at 3 and 14 DAT and compared to 5× H751× Hi II control plants.

[3] = 140 g ai/ha glufosinate postemergence
[4] = 280 g ai/ha glufosinate postemergence
[5] = 560 g ai/ha glufosinate postemergence
[6] = 1120 g ai/ha glufosinate postemergence
[7] = 2240 g ai/ha glufosinate postemergence
[8] = 4480 g ai/ha glufosinate postemergence

## CP(=O)(O)CCC(N)C(=O)O (stereo not drawn) [glufosinate]
[1]; 250 μg/ml BASTA
  bacterial growth on minimal media: +++
[1]; 500 μg/ml BASTA
  bacterial growth on minimal media: +++
[1]; 1000 μg/ml BASTA
  bacterial growth on minimal media: +++
[1]; 2000 μg/ml BASTA
  bacterial growth on minimal media: +++
[1]; 4000 μg/ml BASTA
  bacterial growth on minimal media: +++
[1]; minimal media
  concentration in minimal media at which expression of DSM-2 complemented resistance: 400 µg/mL
Wildtype Arabidopsis; [3]
  % Injury Ave: 98.0%
  individuals with % Injury 20-40%: 0
  individuals with % Injury <20%: 0
  individuals with % Injury >40%: 10
Wildtype Arabidopsis; [4]
  % Injury Ave: 100.0%
  individuals with % Injury 20-40%: 0
  individuals with % Injury <20%: 0
  individuals with % Injury >40%: 10
Wildtype Arabidopsis; [5]
  % Injury Ave: 100.0%
  individuals with % Injury 20-40%: 0
  individuals with % Injury <20%: 0
  individuals with % Injury >40%: 10
Wildtype Arabidopsis; [6]
  % Injury Ave: 100.0%
  individuals with % Injury 20-40%: 0
  individuals with % Injury <20%: 0
  individuals with % Injury >40%: 10
Wildtype Arabidopsis; Arabidopsis
  effective dose to distinguish sensitive plants from ones with meaningful levels of resistance: 140 g ai/ha
[2]; [5]
  % Injury Ave: 100%
  individuals with % Injury 20-40%: 0
  individuals with % Injury <20%: 0
  individuals with % Injury >40%: 4
[2]; [6]
  % Injury Ave: 100%
  individuals with % Injury 20-40%: 0
  individuals with % Injury <20%: 0
  individuals with % Injury >40%: 4
[2]; [7]
  % Injury Ave: 100%
  individuals with % Injury 20-40%: 0
  individuals with % Injury <20%: 0
  individuals with % Injury >40%: 4
[2]; [8]
  % Injury Ave: 100%
  individuals with % Injury 20-40%: 0
  individuals with % Injury <20%: 0
  individuals with % Injury >40%: 4
